In ChEMBL document CHEMBL1201862, “PubChem BioAssay data set” (2004):
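Five compound concentrations were applied to cells in 96-well plates for 48 hours; endpoints were derived by simple linear interpolation of the resulting dose-response curve. At the GI50, growth is halved.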 Active and inactive are the calls of the source. Cut-off read from the data, not from the text of the source: active = GI50 up to about 1.1 µM and inactive = higher.

Key:
Assay in all cases: NCI tumour cell line growth inhibition, 48 h
786-0 = tested on: 786-0
ACHN = tested on: ACHN
COLO 205 = tested on: COLO 205
HCT-15 = tested on: HCT-15
HT-29 = tested on: HT-29
IGROV-1 = tested on: IGROV-1
K562 = tested on: K562
KM12 = tested on: KM12
NCI-H23 = tested on: NCI-H23
NCI-H460 = tested on: NCI-H460
OVCAR-3 = tested on: OVCAR-3
OVCAR-8 = tested on: OVCAR-8
SF-539 = tested on: SF-539
SK-MEL-5 = tested on: SK-MEL-5
SK-OV-3 = tested on: SK-OV-3
SN12C = tested on: SN12C
SNB-19 = tested on: SNB-19
SNB-75 = tested on: SNB-75
SW-620 = tested on: SW-620
U-251 = tested on: U-251

CN1CCN([C@H]2C[C@H]3[C@@H]4CC=C5C[C@@H](O)CC[C@]5(C)[C@H]4CC[C@]3(C)[C@H]2O)CC1
GI50 (786-0): 17.8 µM (inactive) | GI50 (ACHN): > 100 µM (inactive) | GI50 (COLO 205): > 67.8 µM (inactive) | GI50 (HCT-15): > 42.3 µM | GI50 (HT-29): 7.29 µM (inactive) | GI50 (IGROV-1): > 90.8 µM (inactive) | GI50 (K562): 19 µM (inactive) | GI50 (KM12): > 53.8 µM (inactive) | GI50 (NCI-H23): > 100 µM (inactive) | GI50 (NCI-H460): > 42.7 µM (inactive) | GI50 (OVCAR-3): > 42.1 µM (inactive) | GI50 (OVCAR-8): > 42.8 µM (inactive) | GI50 (SF-539): 26.2 µM (inactive) | GI50 (SK-MEL-5): 35.5 µM (inactive) | GI50 (SK-OV-3): > 100 µM (inactive) | GI50 (SN12C): > 100 µM (inactive) | GI50 (SNB-19): > 45.5 µM (inactive) | GI50 (SNB-75): > 49.2 µM (inactive) | GI50 (SW-620): 20.7 µM (inactive) | GI50 (U-251): 17.1 µM (inactive)

COC(=O)C1CC2(c3ccccc3)C(=O)c3ccccc3N2O1 (stereo not given)
GI50 (786-0): 35.4 µM (inactive) | GI50 (ACHN): 49.2 µM (inactive) | GI50 (COLO 205): 98.4 µM (inactive) | GI50 (HCT-15): 43.1 µM | GI50 (HT-29): 33.3 µM (inactive) | GI50 (IGROV-1): > 100 µM (inactive) | GI50 (K562): 31.8 µM (inactive) | GI50 (KM12): 72.4 µM (inactive) | GI50 (NCI-H23): > 100 µM (inactive) | GI50 (NCI-H460): 47.3 µM (inactive) | GI50 (OVCAR-3): 70.6 µM (inactive) | GI50 (OVCAR-8): 41.9 µM (inactive) | GI50 (SF-539): 67 µM (inactive) | GI50 (SK-MEL-5): 74.8 µM (inactive) | GI50 (SK-OV-3): > 100 µM (inactive) | GI50 (SN12C): 43 µM (inactive) | GI50 (SNB-19): > 100 µM (inactive) | GI50 (SNB-75): 40.5 µM (inactive) | GI50 (SW-620): 39.3 µM (inactive) | GI50 (U-251): 69.2 µM (inactive)

O=Cc1c2ccccc2n2ccc3c4ccccc4[nH]c3c12
GI50 (786-0): > 10 µM (inactive) | GI50 (ACHN): > 10 µM (inactive) | GI50 (COLO 205): > 10 µM (inactive) | GI50 (HCT-15): > 10 µM | GI50 (HT-29): > 10 µM (inactive) | GI50 (IGROV-1): > 10 µM (inactive) | GI50 (K562): > 10 µM (inactive) | GI50 (KM12): 0.344 µM (active) | GI50 (NCI-H23): > 10 µM (inactive) | GI50 (NCI-H460): > 10 µM (inactive) | GI50 (OVCAR-3): > 10 µM (inactive) | GI50 (OVCAR-8): > 10 µM (inactive) | GI50 (SF-539): > 10 µM (inactive) | GI50 (SK-MEL-5): > 10 µM (inactive) | GI50 (SK-OV-3): > 10 µM (inactive) | GI50 (SN12C): > 10 µM (inactive) | GI50 (SNB-19): > 10 µM (inactive) | GI50 (SNB-75): > 10 µM (inactive) | GI50 (SW-620): > 10 µM (inactive) | GI50 (U-251): > 10 µM (inactive)

O=[N+]([O-])c1cccc2nccc(NCCCO)c12
GI50 (786-0): 17.7 µM (inactive) | GI50 (ACHN): 14.3 µM (inactive) | GI50 (COLO 205): 3.55 µM (inactive) | GI50 (HCT-15): 8.11 µM | GI50 (HT-29): 6.89 µM (inactive) | GI50 (IGROV-1): 13.3 µM (inactive) | GI50 (K562): 13.2 µM (inactive) | GI50 (KM12): 10.8 µM (inactive) | GI50 (NCI-H23): 12.5 µM (inactive) | GI50 (NCI-H460): 11 µM (inactive) | GI50 (OVCAR-3): 14.6 µM (inactive) | GI50 (OVCAR-8): 14.5 µM (inactive) | GI50 (SF-539): 14.5 µM (inactive) | GI50 (SK-MEL-5): 3.9 µM (inactive) | GI50 (SK-OV-3): 23.3 µM (inactive) | GI50 (SN12C): 14.8 µM (inactive) | GI50 (SNB-19): 25.1 µM (inactive) | GI50 (SNB-75): 24.3 µM (inactive) | GI50 (SW-620): 13.3 µM (inactive) | GI50 (U-251): 14.1 µM (inactive)

O=C1C(Cl)=C(OCCCl)C(=O)c2c(O)ccc(O)c21
GI50 (786-0): 6.58 µM (inactive) | GI50 (ACHN): 3.16 µM (inactive) | GI50 (COLO 205): 1.61 µM (inactive) | GI50 (HCT-15): 2.53 µM | GI50 (HT-29): 4.73 µM (inactive) | GI50 (IGROV-1): 7.13 µM (inactive) | GI50 (K562): 0.267 µM (active) | GI50 (KM12): 19.7 µM (inactive) | GI50 (NCI-H23): 5.75 µM (inactive) | GI50 (NCI-H460): 18.5 µM (inactive) | GI50 (OVCAR-3): 2.96 µM (inactive) | GI50 (OVCAR-8): 13.9 µM (inactive) | GI50 (SF-539): 17.3 µM (inactive) | GI50 (SK-MEL-5): 2.75 µM (inactive) | GI50 (SK-OV-3): 18.2 µM (inactive) | GI50 (SN12C): 14.8 µM (inactive) | GI50 (SNB-19): 16.7 µM (inactive) | GI50 (SNB-75): 13 µM (inactive) | GI50 (SW-620): 2.05 µM (inactive) | GI50 (U-251): 14.3 µM (inactive)

O=C1N(CN2CCOCC2)CN(CN2CCOCC2)C(=O)N1Cc1ccccc1
GI50 (786-0): 26.6 µM (inactive) | GI50 (ACHN): 32.5 µM (inactive) | GI50 (COLO 205): 20.1 µM (inactive) | GI50 (HCT-15): 27.6 µM | GI50 (HT-29): 20.3 µM (inactive) | GI50 (IGROV-1): 24.5 µM (inactive) | GI50 (K562): 24 µM (inactive) | GI50 (KM12): 23.8 µM (inactive) | GI50 (NCI-H23): 17.9 µM (inactive) | GI50 (NCI-H460): 32.6 µM (inactive) | GI50 (OVCAR-3): 23.9 µM (inactive) | GI50 (OVCAR-8): 19.2 µM (inactive) | GI50 (SF-539): 19.2 µM (inactive) | GI50 (SK-MEL-5): 19.4 µM (inactive) | GI50 (SK-OV-3): > 100 µM (inactive) | GI50 (SN12C): 23 µM (inactive) | GI50 (SNB-19): > 100 µM (inactive) | GI50 (SNB-75): 25.5 µM (inactive) | GI50 (SW-620): 22 µM (inactive) | GI50 (U-251): 23.3 µM (inactive)

CC1CCCP(=O)(c2ccccc2)CC1 (stereo not given)
GI50 (786-0): > 100 µM (inactive) | GI50 (ACHN): > 100 µM (inactive) | GI50 (COLO 205): > 100 µM (inactive) | GI50 (HCT-15): > 100 µM | GI50 (HT-29): > 100 µM (inactive) | GI50 (IGROV-1): > 100 µM (inactive) | GI50 (K562): > 100 µM (inactive) | GI50 (KM12): > 100 µM (inactive) | GI50 (NCI-H23): > 100 µM (inactive) | GI50 (NCI-H460): > 100 µM (inactive) | GI50 (OVCAR-3): > 100 µM (inactive) | GI50 (OVCAR-8): > 100 µM (inactive) | GI50 (SF-539): > 100 µM (inactive) | GI50 (SK-MEL-5): > 100 µM (inactive) | GI50 (SK-OV-3): > 100 µM (inactive) | GI50 (SN12C): > 100 µM (inactive) | GI50 (SNB-19): > 100 µM (inactive) | GI50 (SNB-75): > 100 µM (inactive) | GI50 (SW-620): > 100 µM (inactive) | GI50 (U-251): > 100 µM (inactive)
